Measured values reported in the supplement of paper PMC11208160.

Assay: recombinant barcode read abundance after kanamycin selection (control-corrected) (log10(CPM+1)); higher = more efficient recombination; sequences stand for … in AGTGCAGAGAAAATCGGCCAGTTTTCTCTGCCTGCAGTCCGCATGCCGT…AGATTTATGCAGCGGACTGCCTTTCTCCCAAAGTGATAAACCGGACAGTATCATGGACCGGTTTTCCCGGTAATCCGTATTTGCAAGGTTGGTTTCACT; site = the 11-nt target
Procedure, shortened: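 Duplicate cultures were plated either on chloramphenicol/ampicillin LB agar, serving as control, or on chloramphenicol/ampicillin/kanamycin with 0.1 mM IPTG. These came from a pooled E. coli library co-electroporated with a donor plasmid, each member pairing a target with an IS621 bridge RNA target-binding loop. Recombination efficiency equals averaged, control-corrected counts per million of recombinant-junction barcodes. It is listed as log10(CPM+1).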
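Note: IS621 recombinase and bridge RNA in Escherichia coli cells.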

Sequence | recombinant barcode read abundance (log10)
GAACCTTCTTGGGTTCTAACCTGTTGCCT (site GAACCTTCTAG) | 0.695
GAACCTTCTTGGGTTCTAACCTGTTGCCT (site GAACGATCTAG) | 0.0234
GAACGACCTTGGGTTCTAACCTGTTGCTT (site GAACGACCTAA) | 0.613
GAACGACCTTGGGTTCTAACCTGTTGCTT (site GAACGACCTCA) | 0.0114
GAACGCTCTTGGGTTCTAACCTGTTGCTT (site GAACGCTCTAA) | 0.876
GAACGCTCTTGGGTTCTAACCTGTTGCTT (site TGTAAGACTCT) | 0.225
GAACGGGCTTGGGTTCTAACCTGTTGCGG (site GAACGGGCTCC) | 1.33
GAACGGGCTTGGGTTCTAACCTGTTGCGG (site GGACGGGCTCT) | 0.12
GAAGCTCCTTGGGTTCTAACCTGTTGCGT (site GAAGCTCCTAC) | 2.81
GAAGCTCCTTGGGTTCTAACCTGTTGCGT (site GAGGCTCCTAC) | 0.581
GAAGTAACTTGGGTTCTAACCTGTTGCCT (site GAAGTAACTAG) | 1.18
GAAGTAACTTGGGTTCTAACCTGTTGCCT (site GACGTAACTAG) | 0.194
GAAGTAACTTGGGTTCTAACCTGTTGCCT (site GAGGTAACTAG) | 0.346
GAAGTAACTTGGGTTCTAACCTGTTGCCT (site GATGTAACTAG) | 0.0965
GAATATTCTTGGGTTCTAACCTGTTGCTT (site GAATATTCTAA) | 0.206
GAATATTCTTGGGTTCTAACCTGTTGCTT (site GAATGTTCTAA) | 0.0342
GAATCTACTTGGGTTCTAACCTGTTGCCT (site GAATCTACTAG) | 0.512
GAATCTACTTGGGTTCTAACCTGTTGCCT (site GCATCTACTAG) | 0.195
GAATCTACTTGGGTTCTAACCTGTTGCCT (site GGATCTACTAG) | 0.896
GAATCTACTTGGGTTCTAACCTGTTGCCT (site GTATCTACTAG) | 0.136
GAATCTACTTGGGTTCTAACCTGTTGCTT (site GAATCTACTAA) | 0.095
GAATCTACTTGGGTTCTAACCTGTTGCTT (site GACTCTACTAA) | 0.0804

Sequence | recombinant barcode read abundance (log10)
GAATCTACTTGGGTTCTAACCTGTTGCTT (site GAGTCTACTAA) | 0.122
GAATCTACTTGGGTTCTAACCTGTTGCTT (site GATTCTACTAA) | 0.00713
GAATGGACTTGGGTTCTAACCTGTTGCGA (site CTCATATCTAA) | 0.0913
GAATGGACTTGGGTTCTAACCTGTTGCGA (site GAATGGACTTC) | 2.45
GACAAACCTTGGGTTCTAACCTGTTGCCT (site GACAAACCTAG) | 0.433
GACAAACCTTGGGTTCTAACCTGTTGCCT (site GTCAAACCTAA) | 0.00743
GACACAGCTTGGGTTCTAACCTGTTGCCT (site GAAACAGCTAG) | 0.145
GACACAGCTTGGGTTCTAACCTGTTGCCT (site GACACAGCTAG) | 1.26
GACACAGCTTGGGTTCTAACCTGTTGCCT (site GAGACAGCTAG) | 0.118
GACACAGCTTGGGTTCTAACCTGTTGCCT (site GATACAGCTAG) | 0.372
GACACTTCTTGGGTTCTAACCTGTTGCCT (site GACACTTCTAG) | 0.133
GACACTTCTTGGGTTCTAACCTGTTGCCT (site GTCAATTCTAG) | 0.0949
GACATATCTTGGGTTCTAACCTGTTGCTG (site GACATATCTCA) | 0.403
GACATATCTTGGGTTCTAACCTGTTGCTG (site GACATATCTTG) | 0.165
GACCAGCCTTGGGTTCTAACCTGTTGCCT (site GACCAGCCTAA) | 0.277
GACCAGCCTTGGGTTCTAACCTGTTGCCT (site GACCAGCCTAC) | 0.0691
GACCAGCCTTGGGTTCTAACCTGTTGCCT (site GACCAGCCTAG) | 0.98
GACCAGCCTTGGGTTCTAACCTGTTGCCT (site GACCAGCCTAT) | 0.359
GACCAGTCTTGGGTTCTAACCTGTTGCGG (site GACCAGTCTCC) | 1.97
GACCAGTCTTGGGTTCTAACCTGTTGCGG (site GTCCAGGCTCC) | 0.128
GACCGCTCTTGGGTTCTAACCTGTTGCTA (site GACCGCTCTTA) | 1.2
GACCGCTCTTGGGTTCTAACCTGTTGCTA (site GTCAGCTCTTA) | 0.37

Sequence | recombinant barcode read abundance (log10)
GACCGTCCTTGGGTTCTAACCTGTTGCCA (site GACCGTCCTTG) | 0.761
GACCGTCCTTGGGTTCTAACCTGTTGCCA (site GACTGTCCTTC) | 0.472
GACCGTCCTTGGGTTCTAACCTGTTGCTT (site GACCGTCCTAA) | 1.1
GACCGTCCTTGGGTTCTAACCTGTTGCTT (site GACCGTCCTAC) | 0.447
GACCGTCCTTGGGTTCTAACCTGTTGCTT (site GACCGTCCTAG) | 0.252
GACCGTCCTTGGGTTCTAACCTGTTGCTT (site GACCGTCCTAT) | 1.19
GACCGTGCTTGGGTTCTAACCTGTTGCCT (site GACCGAGCTAG) | 0.0758
GACCGTGCTTGGGTTCTAACCTGTTGCCT (site GACCGCGCTAG) | 0.103
GACCGTGCTTGGGTTCTAACCTGTTGCCT (site GACCGGGCTAG) | 0.268
GACCGTGCTTGGGTTCTAACCTGTTGCCT (site GACCGTGCTAG) | 1.38
GACCTACCTTGGGTTCTAACCTGTTGCAG (site GACCTACCTCT) | 2.18
GACCTACCTTGGGTTCTAACCTGTTGCAG (site GACCTCCCTCA) | 0.136
GACCTATCTTGGGTTCTAACCTGTTGCCT (site GACCTATCTAG) | 1.39
GACCTATCTTGGGTTCTAACCTGTTGCCT (site TGTGCTACTGT) | 0.213
GACCTCCCTTGGGTTCTAACCTGTTGCTG (site GACCTACCTCT) | 0.219
GACCTCCCTTGGGTTCTAACCTGTTGCTG (site GACCTCCCTCA) | 2.16
GACGCTTCTTGGGTTCTAACCTGTTGCAT (site GACGCAACTAT) | 1
GACGCTTCTTGGGTTCTAACCTGTTGCAT (site GACGCTTCTAT) | 0.254
GACGTAACTTGGGTTCTAACCTGTTGCAG (site AGGAAGGCTTG) | 0.459
GACGTAACTTGGGTTCTAACCTGTTGCAG (site GACGTAACTCT) | 1.15
GACGTAACTTGGGTTCTAACCTGTTGCCT (site GAAGTAACTAG) | 0.0422
GACGTAACTTGGGTTCTAACCTGTTGCCT (site GACGTAACTAG) | 0.508

Sequence | recombinant barcode read abundance (log10)
GACGTAACTTGGGTTCTAACCTGTTGCCT (site GAGGTAACTAG) | 0.0292
GACGTAACTTGGGTTCTAACCTGTTGCCT (site GATGTAACTAG) | 0.163
GACTAGTCTTGGGTTCTAACCTGTTGCAG (site CGGGGCCCTAA) | 0.156
GACTAGTCTTGGGTTCTAACCTGTTGCAG (site GACTAGTCTCT) | 2.22
GACTATCCTTGGGTTCTAACCTGTTGCCG (site ACTATGACTAA) | 0.0127
GACTATCCTTGGGTTCTAACCTGTTGCCG (site GACTATCCTCG) | 0.739
GACTATGCTTGGGTTCTAACCTGTTGCCT (site GACTATGCTAG) | 0.461
GACTATGCTTGGGTTCTAACCTGTTGCCT (site GCCTATGCTAG) | 0.291
GACTATGCTTGGGTTCTAACCTGTTGCCT (site GGCTATGCTAG) | 0.0633
GACTATGCTTGGGTTCTAACCTGTTGCCT (site GTCTATGCTAG) | 0.00989
GACTATTCTTGGGTTCTAACCTGTTGCCT (site GAATATTCTAG) | 0.0378
GACTATTCTTGGGTTCTAACCTGTTGCCT (site GACTATTCTAG) | 0.212
GACTATTCTTGGGTTCTAACCTGTTGCCT (site GAGTATTCTAG) | 0.106
GACTATTCTTGGGTTCTAACCTGTTGCCT (site GATTATTCTAG) | 0.178
GACTCTACTTGGGTTCTAACCTGTTGCTT (site GAATCTACTAA) | 0.0131
GACTCTACTTGGGTTCTAACCTGTTGCTT (site GACTCTACTAA) | 0.65
GACTCTACTTGGGTTCTAACCTGTTGCTT (site GAGTCTACTAA) | 0.068
GACTCTACTTGGGTTCTAACCTGTTGCTT (site GATTCTACTAA) | 0.0521
GACTCTCCTTGGGTTCTAACCTGTTGCAT (site GACTCTCCTAA) | 0.00987
GACTCTCCTTGGGTTCTAACCTGTTGCAT (site GACTCTCCTAC) | 1.45
